In patent US10138271B2, “Native and agonist CTL epitopes of the MUC1 tumor antigen” (The United States of America, as represented by the …, priority 2012, dated 2018):

Key:
Format in all cases: cell-based, human
[1] = system: MUC1-C specific CD8+ T-cells; experiment: HLA-A3 tetramer analysis of T-cell lines; conditions: T-cell line after 6 IVS cycles
Description: (§1) Phycoerythrin (PE) labeled HLA-A3-P432-3F10K and HLA-A3-P483-2L3F tetramers were prepared by the NIH Tetramer Core Facility (Atlanta, Ga.), and PE labeled MHC class I human negative tetramer (Kit No T01044) was obtained from Beckman Coulter Inc (Sykesville, Md.). […] The tetramers were used at a 1:100 dilution, and cells were stained for 45 minutes at 4° C. 1×10^5 cells were acquired on an LSRII (BD), and data was analyzed using FlowJo 9.0.1 software (Tree Star Inc, Ashland, Oreg.).
To determine the frequency of MUC1-C specific CD8^+ T-cells in the T-cell lines generated with peptides P432-3F10K and P483-2L3F, HLA-A3-P432-3F10K tetramer and HLA-A3-P483-2L3F tetramer analysis was used. After 6 IVS cycles, 20% and 16% of the T-cells bound to the P432-3F10K and P483-2L3F tetramer, respectively. 0.01% and 0.04% of the cells bound to a negative tetramer.

[2] = system: MUC1-C specific T-cell lines; experiment: Cytokine production by MUC1-C specific T-cell lines with peptide-pulsed autologous B-cells (Multi-array)
Description: 2.2×10^6 T-cells and 5.5×10^6 autologous B-cells pulsed with peptide P432-3F10K or P483-2L3F were incubated for 24 h in […] medium per well. The supernatants were analyzed by Multi-array technology (Meso Scale Diagnostics, Gaitersburg, Md.) for detection of cytokines.
To test the ability of the MUC1-C peptides to induce cytokine production, P432-3F10K and P483-2L3F specific T-cell lines (1.1×10^6 T cells/mL) from two patients from the PANVAC ovarian cancer clinical trial described in Example 6 were incubated for 24 hours with autologous B-cells pulsed with P432-3F10K or P483-2L3F for 24 hours. The cytokine levels in supernatant of stimulated and unstimulated cells were evaluated.

[3] = system: CD8+ T-cells in PBMCs from carcinoma patients; experiment: IFNγ ELISPOT assay, precursor frequency of specific T-cells in patient PBMCs; conditions: for Patients with specific IFNγ production upon stimulation with peptide: PBMCs pre and three months postvaccination; for Precursor frequency of specific T-cells: peptide 25 μg/mL
Description: Measurement of CD8 immune responses in HLA-A3^+ patients was conducted by enzyme-linked immunosorbent spot assay (ELISPOT) using a modification of the procedure described in Arlen et al., Cancer Immunol. Immunother., 49: 517-529 (2000). The assay was performed using K562-A3 cells as APC. ELISPOT measures the frequency of T cells releasing IFNγ in response to stimulation with a peptide. P432-3F10K, P483-2L3F, no peptide, or an HIV gag peptide (SEQ ID NO: 25; a negative control) were used. Pre- and Post-vaccination PBMCs from each patient were compared. A positive response was scored as a ≥2-fold increase in IFNγ-secreting cells. The spots were analyzed using an ImmunoSpot counter (Cellular Technology Ltd, Shaker Heights, Ohio).
To evaluate the presence of CD8^+ T-cells reactive to the P432-3F10K and P483-2L3F peptides in PBMCs from carcinoma patients enrolled in the clinical vaccine trial, an IFNγ ELISPOT assay was performed. The P432-3F10K and P483-2L3F peptides were used in an ELISPOT assay at a concentration of 25 μg/mL to determine the precursor frequency of specific T-cells. Peptide-pulsed K562-A3 cells were used as APC at an effector:APC ratio of 1:2. HIV peptide and no peptide were used as controls.

[4] = system: CD8+ T cells in PBMCs from cancer patients; experiment: Tetramer staining of patient PBMCs after 2 IVS cycles with peptide
Description: as §1
PBMCs from three patients from the clinical vaccine trial were stimulated for 2 IVS cycles with the autologous dendritic cells exposed to peptide P432-3F10K or P483-2L3F, and one week after the last stimulation the cells were subjected to FACS analysis after staining with CD8-FITC (20 μL) and either P432-3F10K/P483-2L3F-tetramer-PE (1 μL) or negative tetramer-PC (1 μL) for 45 minutes.
Results in Tables 9 and 10 are expressed as the frequency of tetramer positive cells from all CD8^+ T-cells.

Sequence | T-cells bound to peptide/HLA-A3 tetramer [1] [%] | IFNγ ([2]; Patient I, IVS 7) [pg/mL] | IL-2 ([2]; Patient I, IVS 7) [pg/mL] | IL-6 ([2]; Patient I, IVS 7) [pg/mL] | IL-12p70 ([2]; Patient I, IVS 7) [pg/mL] | TNFα ([2]; Patient I, IVS 7) [pg/mL] | IFNγ ([2]; Patient II, IVS 8) [pg/mL] | IL-2 ([2]; Patient II, IVS 8) [pg/mL] | IL-6 ([2]; Patient II, IVS 8) [pg/mL] | IL-12p70 ([2]; Patient II, IVS 8) [pg/mL] | TNFα ([2]; Patient II, IVS 8) [pg/mL] | Patients with specific IFNγ production upon stimulation with peptide [3] | Precursor frequency of specific T-cells ([3]; Patient II, Post) | Precursor frequency of specific T-cells ([3]; Patient II, Pre) | Precursor frequency of specific T-cells ([3]; Patient III, Post) | Precursor frequency of specific T-cells ([3]; Patient III, Pre) | Precursor frequency of specific T-cells ([3]; Patient IV, Post) | Precursor frequency of specific T-cells ([3]; Patient IV, Pre) | Precursor frequency of specific T-cells ([3]; Patient IX, Post) | Precursor frequency of specific T-cells ([3]; Patient IX, Pre) | other results
ALFIVYLIAK [Peptide P432-3F10K] | 20 | 350 | 40 | 16 | 5 | 180 | 50 | 3 | 80 | 7 | 130 | 5 of 11 | 1/2372 | 1/6316 | 1/5455 | 1/6522 | 1/1322 | 1/2000 | <1/200000 | <1/200000 | Precursor frequency of specific T-cells ([3]; Patient V, Post): <1/200000; Precursor frequency of specific T-cells ([3]; Patient V, Pre): <1/200000; Precursor frequency of specific T-cells ([3]; Patient VI, Post): 1/21429; Precursor frequency of specific T-cells ([3]; Patient VI, Pre): 1/4511; Precursor frequency of specific T-cells ([3]; Patient VII, Post): <1/200000; Precursor frequency of specific T-cells ([3]; Patient VII, Pre): <1/200000; Precursor frequency of specific T-cells ([3]; Patient VIII, Post): <1/200000; Precursor frequency of specific T-cells ([3]; Patient VIII, Pre): <1/200000; Precursor frequency of specific T-cells ([3]; Patient X, Post): <1/200000; Precursor frequency of specific T-cells ([3]; Patient X, Pre): <1/200000; Precursor frequency of specific T-cells ([3]; Patient XI, Post): 1/7229; Precursor frequency of specific T-cells ([3]; Patient XI, Pre): 1/4196; Frequency of tetramer positive cells from all CD8+ T-cells ([4]; patient III post-vaccination): 59.9%; Frequency of tetramer positive cells from all CD8+ T-cells ([4]; patient III pre-vaccination): 44.5%; Frequency of tetramer positive cells from all CD8+ T-cells ([4]; patient IV post-vaccination): 23.8%; Frequency of tetramer positive cells from all CD8+ T-cells ([4]; patient IV pre-vaccination): 22.0%; Frequency of tetramer positive cells from all CD8+ T-cells ([4]; patient V post-vaccination): 22.0%; Frequency of tetramer positive cells from all CD8+ T-cells ([4]; patient V pre-vaccination): 31.5%
SLFRSPYEK [Peptide P483-2L3F] | 16 | 180 | 7 | 12 | 5 | 46 | 2590 | 15 | 150 | 9 | 470 | No patient had a specific reaction | <1/200000 | <1/200000 | <1/200000 | <1/200000 | <1/200000 | <1/200000 | <1/200000 | <1/200000 | Precursor frequency of specific T-cells ([3]; Patient V, Post): <1/200000; Precursor frequency of specific T-cells ([3]; Patient V, Pre): <1/200000; Precursor frequency of specific T-cells ([3]; Patient VI, Post): <1/200000; Precursor frequency of specific T-cells ([3]; Patient VI, Pre): <1/200000; Precursor frequency of specific T-cells ([3]; Patient VII, Post): <1/200000; Precursor frequency of specific T-cells ([3]; Patient VII, Pre): <1/200000; Precursor frequency of specific T-cells ([3]; Patient VIII, Post): <1/200000; Precursor frequency of specific T-cells ([3]; Patient VIII, Pre): <1/200000; Precursor frequency of specific T-cells ([3]; Patient X, Post): <1/200000; Precursor frequency of specific T-cells ([3]; Patient X, Pre): <1/200000; Precursor frequency of specific T-cells ([3]; Patient XI, Post): <1/200000; Precursor frequency of specific T-cells ([3]; Patient XI, Pre): <1/200000; Frequency of tetramer positive cells from all CD8+ T-cells ([4]; patient III post-vaccination): 80.9%; Frequency of tetramer positive cells from all CD8+ T-cells ([4]; patient III pre-vaccination): 64.7%; Frequency of tetramer positive cells from all CD8+ T-cells ([4]; patient IV post-vaccination): 65.7%; Frequency of tetramer positive cells from all CD8+ T-cells ([4]; patient IV pre-vaccination): 45.5%; Frequency of tetramer positive cells from all CD8+ T-cells ([4]; patient V post-vaccination): 43.8%; Frequency of tetramer positive cells from all CD8+ T-cells ([4]; patient V pre-vaccination): 53.5%
